Assay results from US11999727B2 (Tango Therapeutics, Inc., priority 2020, dated 2024).
Where two headings read alike, the source gives them in different places.

Experiments:
PRMT5 [1] = target: T1, PRMT5 (Homo sapiens, UniProt O14744); assay: PRMT5 biochemical IC50 assay with MTA as cofactor; details: PRMT5, MTA as cofactor; read-out: MTA IC50
T1 construct: purchased Viva (custom protein)

[2] = system: HAP1 MTAP-intact cell line; assay: SDMA in-cell western assay, HAP1 MTAP-intact; type: cell-based; details: Homo sapiens
Method in brief: (§1)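 Readout: in-cell western detection of SDMA. Cells: HAP1 expressing endogenous MTAP and an MTAP-null HAP1 counterpart. Output: IC50.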

[3] = system: HAP1 MTAP-deleted cell line; assay: Viability assay, MTAP-deleted cell line; type: cell-based
Source text: Table 1 additionally indicates IC50 values in a viability assay for the MTAP-deleted cell line (column 10), indicating the effect of treatment with compound on cell survival.

PRMT5 [4] = target: T1, PRMT5; assay: PRMT5 biochemical IC50 assay with SAM as cofactor; details: PRMT5, SAM as cofactor; read-out: SAM IC50
[5] = system: HAP1 MTAP-deleted cell line; assay: SDMA in-cell western assay, HAP1 MTAP-deleted; type: cell-based; details: for IC50: Homo sapiens; for MTAP intact/deleted ratio: IC50 ratio HAP1 MTAP-intact / HAP1 MTAP-deleted, SDMA in-cell western
Method in brief: as §1

PRMT5 [6] = target: T1, PRMT5; assay: PRMT5 biochemical IC50 assay with no cofactor; details: PRMT5, no cofactor; read-out: No Cofactor/rel IC50
Source text: Table 1 indicates IC50 values (μM) against PRMT5 for exemplary compounds in the presence of SAM as cofactor, with no cofactor, and with MTA as cofactor, respectively (columns 4-6). […] Ki values can be calculated from the IC50 values as described in the Examples section. As detailed in the Examples section, for the assay performed in the presence of SAM, IC50=Ki×1.5 (Ki=IC50/1.5).

[7] = HAP1, SDMA in-cell western, HAP1 MTAP-intact, read-out: MTAP HAP1 intact IC50
[8] = Homo sapiens, HAP1, viability assay, MTAP-deleted cell line, read-out: HAP1 MTAP deleted viability
[9] = HAP1, SDMA in-cell western, HAP1 MTAP-deleted, read-out: HAP1 MTAP deleted IC50
[10] = HAP1, read-out: MTAP HAP1 intact IC50
[11] = Homo sapiens, HAP1, read-out: HAP1 MTAP deleted viability
[12] = HAP1, read-out: HAP1 MTAP deleted IC50

T1 sequence (O14744 whole entry): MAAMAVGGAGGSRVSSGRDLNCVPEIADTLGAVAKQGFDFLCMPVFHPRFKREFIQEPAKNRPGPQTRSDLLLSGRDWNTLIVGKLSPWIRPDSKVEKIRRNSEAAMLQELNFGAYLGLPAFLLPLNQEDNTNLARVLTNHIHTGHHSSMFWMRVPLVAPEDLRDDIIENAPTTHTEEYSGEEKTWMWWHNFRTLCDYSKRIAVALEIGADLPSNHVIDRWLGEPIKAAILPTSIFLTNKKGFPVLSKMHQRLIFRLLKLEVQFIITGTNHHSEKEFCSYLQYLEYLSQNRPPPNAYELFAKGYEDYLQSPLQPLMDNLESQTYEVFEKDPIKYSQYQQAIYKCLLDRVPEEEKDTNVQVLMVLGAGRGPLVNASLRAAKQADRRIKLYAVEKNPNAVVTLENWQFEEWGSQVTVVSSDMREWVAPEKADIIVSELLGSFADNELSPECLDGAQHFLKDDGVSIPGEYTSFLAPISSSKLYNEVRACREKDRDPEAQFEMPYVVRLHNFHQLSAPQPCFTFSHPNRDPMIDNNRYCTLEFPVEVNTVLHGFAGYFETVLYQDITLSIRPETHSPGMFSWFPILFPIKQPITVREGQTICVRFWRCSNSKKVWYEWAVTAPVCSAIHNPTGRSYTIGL
T1 sequence (Q9BQA1 whole entry partner): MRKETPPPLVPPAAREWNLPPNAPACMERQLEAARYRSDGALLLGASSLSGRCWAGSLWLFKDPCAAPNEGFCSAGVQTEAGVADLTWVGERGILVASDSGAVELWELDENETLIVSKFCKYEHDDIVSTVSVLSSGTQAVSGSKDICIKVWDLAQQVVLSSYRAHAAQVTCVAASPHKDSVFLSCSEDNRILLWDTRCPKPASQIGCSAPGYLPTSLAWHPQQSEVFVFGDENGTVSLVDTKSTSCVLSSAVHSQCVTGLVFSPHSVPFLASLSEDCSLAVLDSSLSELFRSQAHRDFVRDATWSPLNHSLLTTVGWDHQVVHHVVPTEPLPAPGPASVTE

| Compound | IC50 (PRMT5 [1]) [µM] | IC50 [2, 7] [µM] | IC50 [3, 8] [µM] | IC50 (PRMT5 [4]) [µM] | IC50 [5, 9] [µM] | MTAP intact/deleted ratio [5] | IC50 (PRMT5 [6]) [µM] | IC50 [2, 10] [µM] | IC50 [3, 11] [µM] | IC50 [5, 12] [µM] | IC50 ([3]; viability assay, MTAP-deleted cell line, read-out: HAP1 MTAP deleted viability) [µM] |
| --- | --- | --- | --- | --- | --- | --- | --- | --- | --- | --- | --- |
| Cc1cc(NC(=O)C(=O)N2C[C@@H](C)CC[C@@H]2c2cccc(Cl)c2)cnc1N (single isomer, unassigned) [Compound 284] | < 0.05 | 0.1 to 1 | < 1 | 0.05 to 0.5 | < 0.1 | A (an IC50 ratio greater than or equal to 10 fold) | < 0.05 | – | – | – | – |
| COc1ncc(NC(=O)C(=O)N2C[C@@H](C)CC[C@@H]2c2ccc(O)cc2)cc1C(N)=O (single isomer, unassigned) [Compound 288] | < 0.05 | – | – | 0.05 to 0.5 | – | A (an IC50 ratio greater than or equal to 10 fold) | < 0.05 | 0.1 to 1 | < 1 | < 0.1 | – |
| Cc1cc(NC(=O)C(=O)N2C[C@@H](C)CC[C@@H]2[C@H]2CC[C@@H](C(C)(C)C)CC2)cnc1N (single isomer, unassigned) [Compound 290] | > 0.5 | > 1 | > 10 | > 0.5 | > 1 | C (an IC50 ratio of less than 3 fold) | > 0.5 | – | – | – | – |
| COc1ncc(NC(=O)C(=O)N2C[C@@H](C)CC[C@@H]2c2ccccc2)cc1C(N)=O (single isomer, unassigned) [Compound 291] | > 0.5 | – | – | > 0.5 | – | C (an IC50 ratio of less than 3 fold) | > 0.5 | > 1 | > 10 | > 1 | – |
| COc1ncc(NC(=O)C(=O)N2C[C@H](C)CC[C@H]2c2ccc(O)cc2)cc1C(N)=O (single isomer, unassigned) [Compound 292] | > 0.5 | – | – | > 0.5 | – | C (an IC50 ratio of less than 3 fold) | > 0.5 | > 1 | > 10 | > 1 | – |
| Cc1cc([C@H]2CC[C@H](C)CN2C(=O)C(=O)Nc2cncc(C(N)=O)c2)ccc1F (single isomer, unassigned) [Compound 293] | < 0.05 | > 1 | 1 to 10 | < 0.05 | < 0.1 | A (an IC50 ratio greater than or equal to 10 fold) | 0.05 to 0.5 | – | – | – | – |
| COc1ncc(NC(=O)C(=O)N2CCCCC2C2CCCC2)cc1C(N)=O (single isomer, unassigned) [Compound 294, 5-(2-(2-cyclopentylpiperidin-1-yl)-2-oxoacetamido)-2-methoxynicotinamide] | < 0.05 | > 1 | – | 0.05 to 0.5 | < 0.1 | A (an IC50 ratio greater than or equal to 10 fold) | 0.05 to 0.5 | – | – | – | 1 to 10 |
| Cc1cc(NC(=O)C(=O)N2C[C@H](C)CC[C@H]2c2cccnc2)cnc1N (single isomer, unassigned) [Compound 301] | < 0.05 | 0.1 to 1 | 1 to 10 | 0.05 to 0.5 | < 0.1 | B (an IC50 ratio greater than or equal to 3 fold but lower than 10 fold) | 0.05 to 0.5 | – | – | – | – |
| COc1ncc(NC(=O)C(=O)N2C[C@@H](C)CC[C@@H]2c2cccs2)cc1C(N)=O (single isomer, unassigned) [Compound 303] | < 0.05 | > 1 | < 1 | 0.05 to 0.5 | < 0.1 | A (an IC50 ratio greater than or equal to 10 fold) | < 0.05 | – | – | – | – |
| COc1ncc(NC(=O)C(=O)N2C[C@H](C)CC[C@H]2C2CCCC2)cc1C(N)=O (single isomer, unassigned) [Compound 306] | < 0.05 | > 1 | 1 to 10 | 0.05 to 0.5 | < 0.1 | A (an IC50 ratio greater than or equal to 10 fold) | 0.05 to 0.5 | – | – | – | – |
| COc1ncc(NC(=O)C(=O)N2C[C@H](C)CC[C@@H]2c2ccccc2)cc1C(N)=O (single isomer, unassigned) [Compound 308] | < 0.05 | – | – | 0.05 to 0.5 | – | A (an IC50 ratio greater than or equal to 10 fold) | > 0.5 | > 1 | > 10 | 0.1 to 1 | – |
| C[C@@H]1C[C@H](C)[C@@H](c2ccccc2)N(C(=O)C(=O)Nc2cncc(C(N)=O)c2)C1 (single isomer, unassigned) [Compound 311, 5-(2-(3,5-dimethyl-2-phenylpiperidin-1-yl)-2-oxoacetamido)nicotinamide] | < 0.05 | > 1 | > 10 | 0.05 to 0.5 | 0.1 to 1 | A (an IC50 ratio greater than or equal to 10 fold) | 0.05 to 0.5 | – | – | – | – |
| Cc1cc(NC(=O)C(=O)N2C[C@@H](C)[C@H](C)C[C@H]2c2ccccc2)cnc1N (single isomer, unassigned) [Compound 313] | < 0.05 | > 1 | 1 to 10 | 0.05 to 0.5 | < 0.1 | A (an IC50 ratio greater than or equal to 10 fold) | 0.05 to 0.5 | – | – | – | – |
| C[C@H]1CC[C@H](C2CCC(F)(F)CC2)N(C(=O)C(=O)Nc2cncc(C(N)=O)c2)C1 (single isomer, unassigned) [Compound 320] | 0.05 to 0.5 | > 1 | > 10 | 0.05 to 0.5 | > 1 | B (an IC50 ratio greater than or equal to 3 fold but lower than 10 fold) | > 0.5 | – | – | – | – |
| Cc1cc([C@@H]2CC[C@@H](C)CN2C(=O)C(=O)Nc2cncc(C(N)=O)c2)ccc1O (single isomer, unassigned) [Compound 323] | < 0.05 | 0.1 to 1 | < 1 | 0.05 to 0.5 | < 0.1 | A (an IC50 ratio greater than or equal to 10 fold) | < 0.05 | – | – | – | – |
| CC(=O)N1CCC(c2cccc([C@H]3CC[C@H](C)CN3C(=O)C(=O)Nc3cnc(N)c(C)c3)c2)CC1 (single isomer, unassigned) [Compound 324] | < 0.05 | 0.1 to 1 | < 1 | 0.05 to 0.5 | < 0.1 | A (an IC50 ratio greater than or equal to 10 fold) | < 0.05 | – | – | – | – |
| C[C@@H]1CC[C@@H](c2ccc3c(c2)C[C@@H](C)O3)N(C(=O)C(=O)Nc2cncc(C(N)=O)c2)C1 (single isomer, unassigned) [Compound 329] | < 0.05 | > 1 | 1 to 10 | 0.05 to 0.5 | < 0.1 | A (an IC50 ratio greater than or equal to 10 fold) | 0.05 to 0.5 | – | – | – | – |
| COc1ncc(NC(=O)C(=O)N2C[C@H](C)CC[C@H]2c2ccccc2)cc1C(N)=O (single isomer, unassigned) [Compound 333] | < 0.05 | – | – | 0.05 to 0.5 | – | A (an IC50 ratio greater than or equal to 10 fold) | < 0.05 | > 1 | < 1 | < 0.1 | – |
| CNc1cccc([C@@H]2CCCCN2C(=O)C(=O)Nc2cncc(C(N)=O)c2)c1 (single isomer, unassigned) [Compound 334] | < 0.05 | > 1 | 1 to 10 | 0.05 to 0.5 | < 0.1 | A (an IC50 ratio greater than or equal to 10 fold) | 0.05 to 0.5 | – | – | – | – |
| Cc1cc([C@@H]2CC[C@@H](C)CN2C(=O)C(=O)Nc2cncc(C(N)=O)c2)cc(C)c1O (single isomer, unassigned) [Compound 335] | < 0.05 | > 1 | 1 to 10 | 0.05 to 0.5 | < 0.1 | A (an IC50 ratio greater than or equal to 10 fold) | 0.05 to 0.5 | – | – | – | – |
| Cc1cc(NC(=O)C(=O)N2C[C@H](C)C[C@@H](C)[C@H]2c2ccccc2)cnc1N (single isomer, unassigned) [Compound 339] | < 0.05 | > 1 | > 10 | 0.05 to 0.5 | 0.1 to 1 | A (an IC50 ratio greater than or equal to 10 fold) | 0.05 to 0.5 | – | – | – | – |
| Cc1cc(NC(=O)C(=O)N2CCCC[C@H]2C2CCCC2)cnc1N (single isomer, unassigned) [Compound 340] | < 0.05 | > 1 | 1 to 10 | 0.05 to 0.5 | 0.1 to 1 | A (an IC50 ratio greater than or equal to 10 fold) | 0.05 to 0.5 | – | – | – | – |
